Measurements published in paper PMC9365994, “Small molecules to regulate the GH/IGF1 axis by inhibiting the growth hormone receptor synthesis” (Frontiers in Endocrinology, 2022).

Assays:
[1] = test system: phosphorylated fos-GHRct (fos-GHRct/Jak2 signaling); test: Cell based primary screen: immune fluorescence (anti-GHR, anti-pY, anti-pJak2, anti-pSTAT5) of fos-GHRct-transfected γ2A iJak2 cells; design: species or system human; details: for IC50: Homo sapiens, Table_2.xlsx, second analogue set, read-out: GHR INHIBITORS, BM#, IC50
Experimental: Drug handling and cell-based assays are detailed in Supplementary Data 1 , automation. High-Content StratoMineR ([35]). After incubation with the compounds, the cells were fixed and the fluorescence (anti-GHR, anti-pY, anti-pJak2, anti-pSTAT5) was quantitated.
As it was unknown whether the GH/IGF1 axis is druggable, we designed a broad strategy based on our previous studies in which soluble fos-zipped GHR cytosolic tails (fos-GHRct) can serve as signaling complexes if co-expressed with Jak ([32], [39]). Fos-GHRct expressed without Jak2 is immediately degraded by the ubiquitin pathway. Phosphorylated fos-GHRct (fos-pGHRct) detaches from Jak2 and unzips. Only unzipped fos-pGHRct are protected from proteasomal degradation and accumulate in the cell. […] For 6 scenarios the signal will be decreased: (1) inhibition of Jak2 kinase activity, (2) inhibition of fos-GHRct expression, (3) inhibition of the fos-GHRct : Jak2 interaction, (4) increased degradation of fos-pGHRct, (5) increased degradation of Jak2, and (6) dephosphorylation of fos-pGHRct ([32], [39]).
Figure 1 Diagram of the primary screen. […] If fos-GHRct and Jak2 bind via FERM and box-1, Jak2 gets activated and phosphorylates itself, the dimerized fos-GHRct and STAT5b. After phosphorylation of fos-GHRct, Jak2 and STAT5, the complex dissociates. As fos-pGHRct is protease-resistant, it accumulates in the cells. Unphosphorylated fos-GHRct is rapidly degraded. Steady state levels of fos-pGHRct are lower if one of the 6 scenarios is valid. The cell-based assay was performed in γ2A cells carrying inducible Jak2 (iJak2) or binding-deficient iJak2 Y119E (as control) ( Figure 2 ). […]
1. Cell based primary screen
The assay was based on Fos-zippered GHR cytosolic tails (fos-GHRct) subsequently acting […]
Fig S1A. Immune Fluorescence staining of γ2a Fig S1B. Immune Fluorescence staining of γ2a monoclonal cell line stably transfected with an monoclonal cell line stably transfected with an inducible Jak2 WT expression construct. inducible Jak2 Y119E expression construct. aim we used a human fibroblast cell line
From this line we generated doxycycline inducible Jak2 clones, expressing either wild type Jak2 or Y119E mutant Jak2 whose FERM domain does […]
To establish a sensitive test, sufficient […]
control the system, we used fos-GHRct mutated in box-1 or the cell line expressing mutant (Y119E) Jak2. The box-1 motif is the binding site of Jak2 in GHR; mutation of this motif (all four proline into alanine) is known to reduce the binding between GHR and Jak2. In the primary screen we measured 4 different signals: fos-GHRct (anti-GHR), tyrosine phosphorylated fos-GHRct (anti-pY), tyrosine phosphorylated Jak2 (anti-pY or anti- […]
inhibition of either fos-GHRct stabilization or fos-GHRct synthesis, are considered positive.
Immunoblots are not appropriate for high throughput screening. Using fos-GHRct-transfected cells as in Fig. S3 and pY-specific primary antibodies, we developed a high throughput screening assay based on pY-fos-GHRct immune fluorescent detection in 384-well plates with automated microscopy. […]
panel). From left to right: Dapi staining to visualize nuclei, fos-GHRct staining: GHRtails are detected by […]

MM231 = test system: MM231; design: method as in PMID 28576744, PMID 17463090; details: cited from earlier work
[2] = test system: COLO-205 human colon cancer cells; design: method as in PMID 15736405; details: cited from earlier work
[3] = test system: GH-induced GHR-Jak2-Stat5 signaling in IM9 lymphoblasts; test: Flow cytometric (FACS) pSTAT5 test, GH-induced, IM9 cells in whole blood; details: drugs 50 µM for 15 MIN
Experimental: First round: The PerFix EXPOSE (Beckman Coulter), was used to fix and permeabilize cells according to the optimized procedure described in Malergue et al., 2015 ([36]). Samples were analyzed in FC500 MPL. Data were analyzed with Kaluza software (Beckman Coulter). Second round: the PerFix EXPOSE was used according to the IFU and samples were analyzed in a Navios Cytometer. The first screening used pure IM-9 cells, whereas in the second round they were spiked in 100 µL whole blood (EDTA tubes). 15 min after the inhibitory compounds, the activators were added for 20-30 min.
In short: A mixture of blood and
IM9 human lymphoblast was incubated with the drugs (50 µM) for 15 MIN; GH and GM-CSF
were added 7 min before the cells were fixed with formaldehyde. Blood cells are sensitive to
GM-CSF, and not to GH; IM9 cells are sensitive to GH. A mixture of three antibodies in three
colors; CD14-FITC, CD34-PE and p-Stat5-Alexa 647 was used to analyze the p-Stat5 levels
of monocytes and IM9 cells.
Fig. S8A. FACS plots of compounds that inhibit GH-induced GHR-Jak2-Stat5 signaling in IM9 lymphoblasts.
The end point of the signaling cascade is measured by assessing the phosphorylation status of STAT5.
Stat5. Conc of drugs: 1 mM; incubation time 30 min
Fig. S8B. FACS plots of compounds that inhibit GM-CSF-Jak2-Stat5 signaling in blood monocytes. The end
point of the signaling cascade is measured by assessing the phosphorylation status of STAT5.

hGH = test: Steady state hGH in hGH-transfected Y2A cells (general protein synthesis); format: cell-based, human; details: drug treatment overnight (10 µM); CHX 40 µg/ml
Text: Figure S14. The best 5 compounds from the dose-response curves were used to test their effect on cell proliferation. They inhibit proliferation of triple negative human breast cancer (MDA-MB-231) cells and colon […]
8. Effect of selected drugs on GH synthesis […]
intracellular steady state concentration of a secretory glycoprotein (human growth hormone, hGH): its steady state is the result of synthesis, glycosylation, intracellular transport and […]
amount of hGH, while none of the compounds changed the steady state concentration in the […]
Figure S15. Y2A cells were transfected with 5 µg of a hGH-pcDNA construct in a 24-well plate; drug treatment overnight (10 µM) as indicated (CHX, cycloheximide 40 µg/ml). […]
control drug, 10 µM. Right lane: human GH 20 ng (control). Only cycloheximide decreased the steady state concentration of hGH in the cells. hGH in the lysates was detected with a rabbit anti-GH antibody.
Furqan, M., N. Mukhi, B. Lee, and D. Liu. 2013. Dysregulation of JAK-STAT pathway in hematological malignancies and JAK inhibitors for clinical application. Biomarker research. 1:5.
Malergue, F., A. van Agthoven, C. Scifo, D. Egan, and G.J. Strous. 2015. Automation of a phospho-STAT5 staining procedure for flow cytometry for application in drug discovery. J Biomol Screen. 20:416-421.
Nespital, T., L.M. van der Velden, A. Mensinga, E.D. van der Vaart, and G.J. Strous. 2016. […]

## Cc1cc(C)cc(-c2ccc3nc(N)nc(N)c3c2C)c1 [BM008]
[1]
  IC50: 500 nM

## Cc1c(-c2cccc(C(F)(F)F)c2)ccc2nc(N)nc(N)c12 [BM013]
[1]
  IC50: 900 nM

## Cc1ccc(S(=O)(=O)OCC(=O)Nc2ccc(C(=O)O)c(O)c2)cc1 [S3I-201]
MM231
  tumor response (in words): tumor regression

## pegvisomant
[2]
  decrease in tumor weight compared to controls: 44%
  decrease in tumor-volume compared to controls: 39%

## Cc1c(-c2cccc(S(C)(=O)=O)c2)ccc2nc(N)nc(N)c12 [BM011]
[1]
  IC50: 900 nM

## Cc1nc(N)nc(NCc2ccccn2)c1/C=C/C(C)(C)c1ccc(C(F)(F)F)cc1 [BM010]
[1]
  IC50: 800 nM

## CCOC(=O)CCOc1c(OC)cc(NCc2ccc3nc(N)nc(N)c3c2C)cc1OC [BM005]
[1]
  IC50: 200 nM

## Nc1nc(N)c2c(ccc3c2ccn3CC2CC2)n1 [BM009]
[1]
  IC50: 600 nM

## CC1(C)Cc2ccc3nc(N)nc(N)c3c2O1 [BM014]
[1]
  IC50: 900 nM

## CC(C)(/C=C/c1c(N)nc(N)nc1CCC(F)(F)F)c1ccc(C(F)(F)F)cc1 [BM007]
[1]
  IC50: 400 nM

## Cc1nc(N)nc(N)c1CCC(C)c1ccc(F)cc1 (stereo not drawn) [BM006]
[1]
  IC50: 200 nM

## O=C1C(Cl)=C/C(=N/S(=O)(=O)c2cccs2)c2ccccc21 [AQ-390/41647621]
[3]
  inhibition in the FACS assay: > 30%

## CCn1c(C(=O)N(C2CC2)C2CC2)cc2c3c(ncn3C)c(Nc3cc(C)n(C)n3)nc21 [BMS-911543, reference compound]
[1]; γ2A cells treated for 24 h, Fig S5
  IC50, percentage pY positive cells: nanomolar range

## C[C@@H]1C[C@@H]([C@H](O)CC2CC(=O)NC(=O)C2)C(=O)[C@@H](C)C1 [cycloheximide]
hGH
  steady state concentration of hGH in the cells: decreased
